PubChem BioAssay AID449765 (Vanderbilt High Throughput Screening Facility, 2010)

biological target: Muscarinic acetylcholine receptor M4 (Homo sapiens) (UniProt P08173); assay: potentiation of EC20 ACh response at hM4 – cell-based, human M4, calcium flux, Millipore GPCR Profiler, dose response (AID 449765); conditions: M4-expressing cells, calcium flux fluorescence
Sequence (P08173 whole entry, looked up): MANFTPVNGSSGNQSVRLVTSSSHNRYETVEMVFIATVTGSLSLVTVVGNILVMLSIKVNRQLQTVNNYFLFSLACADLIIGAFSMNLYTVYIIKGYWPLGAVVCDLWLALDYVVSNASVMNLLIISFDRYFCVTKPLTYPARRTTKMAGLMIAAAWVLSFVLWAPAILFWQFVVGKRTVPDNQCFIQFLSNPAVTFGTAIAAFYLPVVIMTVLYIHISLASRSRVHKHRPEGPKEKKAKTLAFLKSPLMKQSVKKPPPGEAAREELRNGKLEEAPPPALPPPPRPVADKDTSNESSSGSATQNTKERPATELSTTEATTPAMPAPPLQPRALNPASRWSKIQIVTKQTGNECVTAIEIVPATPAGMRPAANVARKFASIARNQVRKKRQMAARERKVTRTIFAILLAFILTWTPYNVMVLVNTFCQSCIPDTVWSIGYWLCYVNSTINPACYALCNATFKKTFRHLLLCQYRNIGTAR

EC50, active:
COc1ccc(CNC(=O)c2sc3nc(OCc4ccncc4)cc(C)c3c2N)cc1 100 nM, Cc1cc(OCc2ccncc2)nc2sc(C(=O)NCc3cccc(F)c3F)c(N)c12 95.3 nM, Cc1cc(OCc2ccncc2)nc2sc(C(=O)NCc3cc(F)ccc3F)c(N)c12 183 nM, Cc1cc(OCCN2CCOCC2)nc2sc(C(=O)NC(C)(C)C)c(N)c12 192 nM
